Measured values from ChEMBL document CHEMBL6178004, “Novel Azaindole Compounds as Phosphodiesterase 4B Inhibitors for Treating Immune-Inflammatory Diseases or Disorders” (ACS Med Chem Lett, 2025).

Tests used:
[1] = target: 3',5'-cyclic-AMP phosphodiesterase 4B (Homo sapiens, UniProt Q07343); test: Inhibition of human recombinant PDE4B1 using [3H]cAMP as substrate incubated for 30 mins by scintillation proximity assay
[2] = target: 3',5'-cyclic-AMP phosphodiesterase 4D (Homo sapiens, UniProt Q08499); test: Inhibition of human recombinant PDE4D3 using [3H]cAMP as substrate incubated for 30 mins by scintillation proximity assay; assay type: single protein
3',5'-cyclic-AMP phosphodiesterase 4D, sequence (Q08499 whole entry): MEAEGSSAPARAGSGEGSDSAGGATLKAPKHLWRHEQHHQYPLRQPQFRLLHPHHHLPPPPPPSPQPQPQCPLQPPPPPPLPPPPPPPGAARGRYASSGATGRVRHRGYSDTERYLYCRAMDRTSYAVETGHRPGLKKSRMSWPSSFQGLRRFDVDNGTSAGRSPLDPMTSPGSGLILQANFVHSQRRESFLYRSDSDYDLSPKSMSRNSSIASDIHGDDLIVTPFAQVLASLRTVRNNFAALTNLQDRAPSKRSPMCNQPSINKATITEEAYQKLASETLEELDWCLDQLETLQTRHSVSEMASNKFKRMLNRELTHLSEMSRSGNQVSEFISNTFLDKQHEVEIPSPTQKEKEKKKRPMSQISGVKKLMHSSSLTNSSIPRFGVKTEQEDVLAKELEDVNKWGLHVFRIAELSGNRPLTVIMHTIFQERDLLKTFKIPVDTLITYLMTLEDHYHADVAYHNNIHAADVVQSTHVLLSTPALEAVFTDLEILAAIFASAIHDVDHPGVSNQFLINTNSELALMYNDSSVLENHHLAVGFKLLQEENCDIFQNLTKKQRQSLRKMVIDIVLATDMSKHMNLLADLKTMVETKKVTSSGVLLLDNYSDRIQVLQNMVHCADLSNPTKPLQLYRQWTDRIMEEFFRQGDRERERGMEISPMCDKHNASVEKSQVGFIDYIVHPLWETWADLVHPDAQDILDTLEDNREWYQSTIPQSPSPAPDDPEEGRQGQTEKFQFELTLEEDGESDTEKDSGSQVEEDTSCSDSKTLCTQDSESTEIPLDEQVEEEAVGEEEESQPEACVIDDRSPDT

3',5'-cyclic-AMP phosphodiesterase 4B, sequence (Q07343 whole entry): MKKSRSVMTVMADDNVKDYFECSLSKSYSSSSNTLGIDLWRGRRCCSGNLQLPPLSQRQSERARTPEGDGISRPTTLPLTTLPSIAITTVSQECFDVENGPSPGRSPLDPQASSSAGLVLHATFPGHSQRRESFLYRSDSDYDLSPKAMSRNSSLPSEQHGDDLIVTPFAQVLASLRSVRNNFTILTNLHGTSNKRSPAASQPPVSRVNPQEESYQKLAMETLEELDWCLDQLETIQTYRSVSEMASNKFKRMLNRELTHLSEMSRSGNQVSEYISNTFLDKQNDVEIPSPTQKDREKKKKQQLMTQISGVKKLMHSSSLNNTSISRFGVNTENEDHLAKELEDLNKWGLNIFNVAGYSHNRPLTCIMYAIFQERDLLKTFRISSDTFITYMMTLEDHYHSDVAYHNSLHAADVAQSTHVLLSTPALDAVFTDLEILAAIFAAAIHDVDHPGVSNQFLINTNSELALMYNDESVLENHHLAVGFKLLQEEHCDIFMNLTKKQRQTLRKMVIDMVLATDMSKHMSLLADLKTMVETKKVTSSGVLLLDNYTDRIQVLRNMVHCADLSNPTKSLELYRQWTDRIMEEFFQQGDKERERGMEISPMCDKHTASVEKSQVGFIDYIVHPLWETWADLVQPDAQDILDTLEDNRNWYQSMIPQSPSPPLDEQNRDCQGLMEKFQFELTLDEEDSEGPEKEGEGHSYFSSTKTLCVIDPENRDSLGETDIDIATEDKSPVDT

IC50 [1] [nM]	Structure (SMILES)	IC50 [2] [nM]
< 10	O=C1c2c(-c3ccc(Cl)c(F)c3)c3ncccc3n2CCN1CCO	10
< 10	O=C1c2c(-c3ccc(F)c(F)c3)c3ncccc3n2C[C@@H](CO)N1C1CC1	10
< 10	N#Cc1ccc(-c2c3n(c4cccnc24)C[C@@H](CO)N(C2CC2)C3=O)cc1F	10

Continued, molecule first:

Structure (SMILES)	IC50 [1] [nM]	IC50 [2] [nM]
COc1ccc(-c2c3n(c4cc(F)cnc24)C[C@H](CO)N(C2CC2)C3=O)cn1	< 10	10
O=C1c2c(-c3ccc(Cl)c(F)c3)c3ncccc3n2C[C@H](CO)N1C1CC1	< 10	10
C[C@@H]1Cn2c(c(-c3ccc(Cl)c(F)c3)c3ncccc32)C(=O)N1CCO	< 10	< 10
